From patent publication US10799442B2, “Compounds useful in the treatment and/or care of the skin, hair, nails, and/or mucous membranes” (LUBRIZOL ADVANCED MATERIALS, INC., priority 2015, dated 2020)

Columns and labels:
[1] = tested on: OCT4; assay: Modulation of stem cell markers in HEKa, Real Time PCR Arrays (OCT4 mRNA); assay type: cell-based, Human; conditions: 48 hours
Protocol: The candidate compound is evaluated for the modulation of several stem cell markers, those transcription factors regulated by miRNA145 (SOX2, OCT4, KLF4 and MYC). Gene expression profiles are analyzed by Real Time PCR Arrays using a 96-well panel for use with SYBR® Green (BioRad) to detect mRNA expression levels of stem cell markers plus three housekeeping genes, and five controls, in Human Epidermal Keratinocytes from adult (HEKa) (Cascade Biologics).
HEKa cells are seeded at 6.0×10^5 cells/well in 6-well plates and incubated in culture medium, Epilife with defined Growth Supplement (EDGS) (Cascade Biologics), for 24 hours at 37° C. in a water-saturated atmosphere of 95% air and 5% CO2. After 24 hours, the medium is removed and the cells are incubated with the synthetic peptide DD14024 at several concentrations in a culture medium. Cells are incubated with culture medium only and these provide the basal conditions. After 48 hours of treatment at 37° C. in a CO2 incubator, the cells are lysed directly in the wells, and RNA is purified following the protocol described on the RNeasy Mini kit (Qiagen) according to the manufacturer's protocol. After RNA elution, quantification and analysis of purity of RNA samples are performed with a biophotometer (Eppendorf). For each sample, 2 μg of high quality RNA is retrotranscribed with iScript Advanced (BioRad) in a final volume of 20 μl. The complete reaction mix is incubated in a thermal cycler (Eppendorf) at 42° C. for 30 minutes and the reaction is stopped at 85° C. for 5 minutes (?). Complementary DNA is amplified by qPCR in a real-time PCR thermocycler (BioRad) using SYBR Green Supermix (BioRad) in the 96-well panel for use with SYBR® Green (BioRad). SYBR Green binds to double-stranded DNA molecules and emits fluorescence which is quantified; the fluorescence intensity is proportional to the amount of the product in the PCR reaction. […] Fold change relative to the expression of the sample genes and reference genes is calculated using normalized expression (ΔΔ(Ct)) method using CFX Manager Software (BioRad). […]

[2] = tested on: Keratin 10; assay: Keratins expression profile in HEKa with 1 mM CaCl2, Real Time PCR Arrays (Keratin 10); assay type: cell-based, Human; conditions: Keratin 10 mRNA, 48 hours
Protocol: The candidate compound is assayed for its ability to recover the basal keratinocyte state. The keratinocytes of the four layers of the epidermis present different expression patterns of keratins. Basal keratinocytes strongly express Keratin 14 and when differentiated, Keratin 10 is increased. To elucidate the keratinocyte state (basal or differentiated), the expression profile of keratins is analyzed by Real Time PCR Arrays, using a 96-well panel for use with SYBR® Green (BioRad) to detect mRNA expression levels of two keratin genes (Keratins 10 and 14) plus three housekeeping genes, and five controls, in Human Epidermal Keratinocytes from adult (HEKa) (Cascade Biologics).
HEKa cells are seeded at 6.0×10^5 cells/well in 6-well plates and incubated in culture medium Epilife with defined Growth Supplement (EDGS) (Cascade Biologics), for 24 hours at 37° C. in a water-saturated atmosphere of 95% air and 5% CO2. After 24 hours, the medium is removed and the cells are incubated with the synthetic peptide candidate at several concentrations in culture medium that contains 1 mM CaCl2) (Sigma) to induce differentiation of keratinocytes. Cells are incubated with 1 mM CaCl2) in culture medium and this provides a positive control of differentiation. Cells are incubated with culture medium only and these provide basal conditions. After 48 hours of treatment at 37° C. in a CO2 incubator, the cells are lysed directly in the wells, and RNA is purified following the protocol described on the RNeasy Mini kit (Qiagen) according to the manufacture's protocol. After RNA elution, quantification and analysis of purity of RNA samples are performed with a biophotometer (Eppendorf). […] SYBR Green binds to double-stranded DNA molecules and emits fluorescence which is quantified; the fluorescence intensity is proportional to the amount of the product in the PCR reaction. […] Fold change relative to the expression of the sample genes and reference genes is calculated using normalized expression (ΔΔ(Ct)) method using CFX Manager Software (BioRad).

Fold induction respect to basal conditions ([1]; 0.001 mg/ml): 1.65 ± 0.13
Fold induction respect to basal conditions ([1]; 0.005 mg/ml): 1.81 ± 0.28
Fold induction respect to basal conditions ([1]; 0.01 mg/ml): 1.71 ± 0.29
Fold induction respect to positive control of differentiation ([2]; 1 mM CaCl2, 0.001 mg/ml): 0.68 ± 0.04
Fold induction respect to positive control of differentiation ([2]; 1 mM CaCl2, 0.005 mg/ml): 0.60 ± 0.02
Fold induction respect to positive control of differentiation ([2]; 1 mM CaCl2, 0.01 mg/ml): 0.72 ± 0.06
Substance: Ac-QEMRMQ-OH [DD14024, Ac-Gln-Glu-Met-Arg-Met-Gln-OH]
